Measured values as given in patent US20220373536A1, “HIGH-CONTENT ANALYSIS METHOD” (priority 2019, published 2022).

System: plasma cells (target cells, CD138+; U-266 or NCI-H929)
Experiment: ICNP-based ADCC assay in microwells, NK cells against plasma cells / U-266 cells under anti-CD38 stimulation, time-lapse PI readout
Format: cell-based
Text: EDTA bone marrow samples were collected from 13 patients with multiple myeloma (MM, 7 de novo and 6 relapses). 8 primary samples were processed through density centrifugation (Ficoll-Pacque; Merck) in order to obtain mononuclear cells while preserving the original composition of the effector (E) and target (T) cells, i.e., NK and plasma cells, respectively. 5 samples were processed with CD138 Antibody coupled to magnetic beads (Miltenyi Biotec) to obtain a population of white blood cells (WBC), a population which comprises NK cells and is depleted of plasma cells.
The resulting cells were co-cultured with U-266 or NCI-H929 cell lines as target cells. […]
The cells from primary or co-culture samples were seeded in 96-well plates, with a final concentration of 2×10^5 cells/well, with variable E:T ratios. […] Each experiment was analyzed by time lapse in fluorescence microscopy for up to 12 hours.
The images for said plurality of microwells are then acquired and, with a detection algorithm, the areas of interest, where each area of interest corresponds to a single cell, for each of said areas of interest, properties which comprise localization, the intensity of certain markers in each fluorescence channel, the cell area, the position of the center of gravity and the morphology are then measured. […]

Substance: Daratumumab
- plasma cell death with respect to plasma cell - NK cell distance (10 μg/mL, 1,200 microwells, plasma cells in contact with NK cells, decreases as distance increases, FIG. 11E): maximum
- death rate of the plasma cells belonging to pattern 2 (spontaneous death or direct effect of the antibody) (10 μg/mL, pattern 2 microwells (only plasma cells, no NK)): 10.86%
